Test results: PubChem BioAssay AID280 (DTP/NCI, 2004)
“And” between values parts separate entries of the source, which are not always exact repeats. Identical values can stand only once. Inconclusive results and toxic doses are left out. The calls were made as follows: active = survival T/C of 150% or more; inactive = T/C below 125% in these data.

Test system: nude mice, LOX melanoma ip, survival T/C
Assay: NCI In Vivo Anticancer Drug Screen. Data for tumor model Human Amelanotic Melanoma (LOX) (intraperitoneal) in NU/NU BALB/C (nude) mice
Details: endpoint: median survival time, higher = longer survival
Method: The antitumor activity of compounds was measured in mice bearing transplantable tumors. Survival or tumor size were measured and the results are expressed as the measurement made in the treated group (T) divided by the measurement made in the vehicle treated control group (C). The tumor model used in this assay is Human Amelanotic Melanoma (LOX) (intraperitoneal) in NU/NU BALB/C (nude) mice

[1] = dose: 37.5 mg/kg/injection, schedule: Q04DX003 (ip), vehicle: saline with Tween-80
[2] = dose: 150.0 mg/kg/injection, schedule: Q04DX003 (ip), vehicle: saline with Tween-80
[3] = dose: 75.0 mg/kg/injection, schedule: Q04DX003 (ip), vehicle: saline with Tween-80
[4] = dose: 600.0 mg/kg/injection, schedule: Q04DX003 (ip), vehicle: saline with Tween-80
[5] = dose: 75.0 mg/kg/injection, schedule: Q04DX003 (ip), vehicle: Klucel (hydroxypropylcellulose) (HPC)
[6] = dose: 150.0 mg/kg/injection, schedule: Q04DX003 (ip), vehicle: Klucel (hydroxypropylcellulose) (HPC)
[7] = dose: 300.0 mg/kg/injection, schedule: Q04DX003 (ip), vehicle: saline with Tween-80

Measured: T/C

CCCCCCNc1nc(NCCCCCC)c2[nH]c(NCCCCCC)nc2n1
inactive: [1] 123 % of control | [2] 122 % of control

S=C(N/N=C1/CCCC/C1=N/NC(=S)N1CCOCC1)N1CCOCC1
inactive: dose: 3.13 mg/kg/injection, schedule: Q04DX003 (ip), vehicle: saline with Tween-80 116 % of control | dose: 6.25 mg/kg/injection, schedule: Q04DX003 (ip), vehicle: saline with Tween-80 117 % of control | dose: 12.5 mg/kg/injection, schedule: Q04DX003 (ip), vehicle: saline with Tween-80 110 % of control

CC(=O)OCC1OC(n2ncc(=O)[nH]c2=O)C(OC(C)=O)C1OC(C)=O (centres undefined)
inactive: dose: 75.0 mg/kg/injection, schedule: Q04DX003 (ip), vehicle: suspension in saline 99 % of control | dose: 150.0 mg/kg/injection, schedule: Q04DX003 (ip), vehicle: suspension in saline 105 % of control | dose: 300.0 mg/kg/injection, schedule: Q04DX003 (ip), vehicle: suspension in saline 104 % of control | dose: 600.0 mg/kg/injection, schedule: Q04DX003 (ip), vehicle: suspension in saline 99 % of control | dose: 1200.0 mg/kg/injection, schedule: Q04DX003 (ip), vehicle: suspension in saline 95 % of control

COc1cc(C(C)c2cc3c(cc2OCCO)OCO3)cc(OC)c1OC (centres undefined)
inactive: [3] 114 % of control | [2] 94 % of control
active: [4] 152 % of control

CC[C@]1(O)C[C@H]2CN(CCc3c([nH]c4ccccc34)[C@@](C(=O)OC)(c3cc4c(cc3OC)N(C)[C@H]3[C@@](O)(C(=O)OC)[C@H](OC(C)=O)[C@]5(CC)C=CCN6CC[C@]43[C@@H]65)C2)C1
inactive: dose: 0.44 mg/kg/injection, schedule: Q04DX003 (iv), vehicle: saline 107 % of control | dose: 0.67 mg/kg/injection, schedule: Q04DX003 (iv), vehicle: saline 112 % of control
123 % of control and 203 % of control: dose: 1.7 mg/kg/injection, schedule: Q04DX003 (ip), vehicle: saline
110 % of control and 203 % of control: dose: 0.67 mg/kg/injection, schedule: Q04DX003 (ip), vehicle: saline
active: dose: 1.7 mg/kg/injection, schedule: Q04DX003 (iv), vehicle: saline 188 % of control

CN=C(NC)c1ccc(NC(=O)/C=C\c2ccc(/C=C/C(=O)Nc3ccc(C(=NC)NC)cc3)cc2)cc1
inactive: dose: 0.78 mg/kg/injection, schedule: Q04DX003 (ip), vehicle: Klucel (hydroxypropylcellulose) (HPC) 104 % of control | dose: 1.56 mg/kg/injection, schedule: Q04DX003 (ip), vehicle: Klucel (hydroxypropylcellulose) (HPC) 109 % of control | dose: 2.0 mg/kg/injection, schedule: Q04DX003 (ip), vehicle: Klucel (hydroxypropylcellulose) (HPC) 90 % of control | dose: 2.25 mg/kg/injection, schedule: Q04DX003 (ip), vehicle: Klucel (hydroxypropylcellulose) (HPC) 101 % of control | dose: 3.75 mg/kg/injection, schedule: Q04DX003 (ip), vehicle: Klucel (hydroxypropylcellulose) (HPC) 87 % of control | dose: 4.0 mg/kg/injection, schedule: Q04DX003 (ip), vehicle: Klucel (hydroxypropylcellulose) (HPC) 105 % of control | dose: 6.0 mg/kg/injection, schedule: Q04DX003 (ip), vehicle: Klucel (hydroxypropylcellulose) (HPC) 111 % of control | dose: 10.0 mg/kg/injection, schedule: Q04DX003 (ip), vehicle: Klucel (hydroxypropylcellulose) (HPC) 105 % of control | dose: 11.0 mg/kg/injection, schedule: Q04DX003 (ip), vehicle: Klucel (hydroxypropylcellulose) (HPC) 98 % of control | dose: 12.5 mg/kg/injection, schedule: Q04DX003 (ip), vehicle: Klucel (hydroxypropylcellulose) (HPC) 109 % of control | dose: 17.0 mg/kg/injection, schedule: Q04DX003 (ip), vehicle: Klucel (hydroxypropylcellulose) (HPC) 90 % of control | dose: 18.0 mg/kg/injection, schedule: Q04DX003 (ip), vehicle: Klucel (hydroxypropylcellulose) (HPC) 95 % of control

Cn1c2ccccc2c2ccc3c(c21)C(=O)C=CC3=O
inactive: dose: 9.38 mg/kg/injection, schedule: Q04DX003 (ip), vehicle: saline with Tween-80 90 % of control | dose: 18.75 mg/kg/injection, schedule: Q04DX003 (ip), vehicle: saline with Tween-80 94 % of control | [1] 88 % of control | [3] 112 % of control | [2] 100 % of control

O=C(O)Cc1cccc(=O)c(O)c1C(=O)O
inactive: [3] 97 % of control | [2] 94 % of control

CC1(C)Nc2cc3c(cc2-n2cccc21)oc1ccccc13
inactive: dose: 37.5 mg/kg/injection, schedule: Q04DX003 (ip), vehicle: DMSO 100 % of control | dose: 75.0 mg/kg/injection, schedule: Q04DX003 (ip), vehicle: DMSO 100 % of control | dose: 150.0 mg/kg/injection, schedule: Q04DX003 (ip), vehicle: DMSO 117 % of control | dose: 300.0 mg/kg/injection, schedule: Q04DX003 (ip), vehicle: DMSO 91 % of control

Cc1cc(N/N=C/c2ccccn2)nc2ccccc12
inactive: [5] 107 % of control | [6] 107 % of control

CN=C(NC#N)NCCSCc1nc[nH]c1C
inactive: [5] 98 % of control | [6] 98 % of control | dose: 300.0 mg/kg/injection, schedule: Q04DX003 (ip), vehicle: Klucel (hydroxypropylcellulose) (HPC) 101 % of control

O=C(CCCCCCC(=O)ON1C(=O)CCC1=O)ON1C(=O)CCC1=O
inactive: [3] 117 % of control | [2] 101 % of control | [7] 98 % of control

COc1ccc2[nH]c3ccc4cc[n+](CCN5CCC(C6CCN(CC[n+]7ccc8ccc9[nH]c%10ccc(OC)cc%10c9c8c7)CC6)CC5)cc4c3c2c1
active: dose: 4.0 mg/kg/injection, schedule: Q04DX003 (ip), vehicle: water 153 % of control | dose: 13.7 mg/kg/injection, schedule: Q04DX003 (ip), vehicle: water 156 % of control | dose: 16.0 mg/kg/injection, schedule: Q04DX003 (ip), vehicle: water 176 % of control | dose: 22.8 mg/kg/injection, schedule: Q04DX003 (ip), vehicle: water 176 % of control | dose: 23.04 mg/kg/injection, schedule: Q04DX003 (ip), vehicle: water 203 % of control | dose: 32.0 mg/kg/injection, schedule: Q04DX003 (ip), vehicle: water 187 % of control | dose: 38.0 mg/kg/injection, schedule: Q04DX003 (ip), vehicle: water 207 % of control | dose: 38.4 mg/kg/injection, schedule: Q04DX003 (ip), vehicle: water 223 % of control | dose: 64.0 mg/kg/injection, schedule: Q04DX003 (ip), vehicle: water 192 % of control

Oc1cccc2ccccc12
inactive: dose: 18.75 mg/kg/injection, schedule: Q04DX003 (ip), vehicle: water 98 % of control | dose: 37.5 mg/kg/injection, schedule: Q04DX003 (ip), vehicle: water 102 % of control | dose: 75.0 mg/kg/injection, schedule: Q04DX003 (ip), vehicle: water 106 % of control | dose: 150.0 mg/kg/injection, schedule: Q04DX003 (ip), vehicle: water 102 % of control

COc1cc(C(=O)N/N=C/c2cccc([N+](=O)[O-])c2)cc(OC)c1OC
inactive: [1] 98 % of control | [3] 101 % of control and 96 % of control | [2] 104 % of control and 105 % of control | [7] 98 % of control | [4] 105 % of control and 98 % of control | dose: 1200.0 mg/kg/injection, schedule: Q04DX003 (ip), vehicle: saline with Tween-80 114 % of control

COC1=C(C)C(=O)C2=C(C1=O)C(CO)N1C(C#N)C3CC4C(C1C2N1CCOC41)N3C (centres undefined)
inactive: dose: 0.63 mg/kg/injection, schedule: Q04DX003 (ip), vehicle: acid diluted with saline 109 % of control | dose: 0.63 mg/kg/injection, schedule: Q04DX003 (ip), vehicle: saline + alcohol 122 % of control | dose: 1.25 mg/kg/injection, schedule: Q04DX003 (ip), vehicle: acid diluted with saline 123 % of control | dose: 2.5 mg/kg/injection, schedule: Q04DX003 (ip), vehicle: acid diluted with saline 115 % of control
active: dose: 2.5 mg/kg/injection, schedule: Q04DX003 (ip), vehicle: saline + alcohol 168 % of control

COc1cc2c(c(OC)c1OC)-c1ccc(OC)c(=O)cc1[C@@H](NC(C)=O)CC2
active: dose: 0.13 mg/kg/injection, schedule: Q04DX003 (ip), vehicle: saline 162 % of control | dose: 0.25 mg/kg/injection, schedule: Q04DX003 (ip), vehicle: saline 150 % of control and 179 % of control and 180 % of control | dose: 0.5 mg/kg/injection, schedule: Q04DX003 (ip), vehicle: saline 171 % of control and 197 % of control and 220 % of control | dose: 1.0 mg/kg/injection, schedule: Q04DX003 (ip), vehicle: saline 229 % of control and 232 % of control and 280 % of control | dose: 2.0 mg/kg/injection, schedule: Q04DX003 (ip), vehicle: saline 189 % of control and 222 % of control and 262 % of control | dose: 4.0 mg/kg/injection, schedule: Q04DX003 (ip), vehicle: saline 268 % of control
